Laboratory results: patent US4880809A, “1,4-disubstituted piperazines (or homopiperazines) as platelet-activating factor antagonists” (Takeda Chemical Industries, Ltd., priority 1987, dated 1989)

Assays:
[1] = system: reversed passive Arthus reaction; test: Inhibitory Action Against Reversed Passive Arthus Reaction; format: in vivo, Jcl SD male rats; settings: p.o. (n = 6)
Procedure: This reaction was conducted, in accordance with the method reported by Chang and Otterness [Eur. J. Pharmacol., 69, 155 (1981)], by using rabbit anti-egg albumin (EA) antiserum. Jcl SD male rats (7 wk) were used. Under ether anesthesia, the hair of the back was cut and 1 ml of a 0.5% solution of EA in physiological saline was injected into the tail vein, followed by intracutaneous injection of 0.1 ml each of the left- and right-hand sides of the back. Vascular permeability was measured as follows. Three hours later, 1 ml of physiological saline containing 1% of Evans blue was given intravenously, and 30 minutes later, the animals were sacrificed by bleeding and the skin excised, and the area of wheals stained with a leakage of the dye (major axis x minor axis, mm^2). The test compounds were suspended in a 5% gum arabic solution, which was administered orally one hour before administration of the antigen.

Wistar-strain rats = test: Toxicity Test; format: in vivo, Male Wistar-strain rats; settings: 30, 100 and 300 mg/kg per day orally, two weeks
Procedure: Male Wistar-strain rats (5 wk) were used in groups of five individuals. The animals of the respective groups were orally administered with the compound of Example 62 at the dose of 30, 100 and 300 mg/kg per day over a period of two weeks as a suspension in gum arabic and water at a rate of 10 ml/kg. The animals of the control group were administered with a suspension of gum arabic in water. [Results]

cerebral infarction [2] = test: Action Against Experimental Cerebral Infarction in Mongolian Gerbils (inclined plane); format: in vivo; settings: 30 mg/kg, p.o., n = 5
Procedure: (§1) Male 10 weeks old Mongolian gerbils were anesthetized with ether. The common carotid artery on both sides was exposed surgically. After waking, the artery was ligated with steel clips for 15 minutes. Then, the clips were removed and the blood was reperfused for three hours. Ataxia symptoms and manifestations of neuro-deficiency were assessed by the method using stroke index [C. P. McGraw: Arch. Neurol., 34, 334-336 (1977)] and inclined plane [A. S. Rivlin et al.: J. Neurosurg., 47, 577-581 (1977)]. The test compounds were orally administered one hour before ligation as a suspension in gum arabic. The control group was administered with the same volume of gum arabic. The number of animals subjected to this experiment was 5 each in both groups.

ET-induced death = test: Anti-Endotoxin Shock Activity in Rats: ET-induced death; format: in vivo, Jcl: SD male rats; settings: for Number of survivals: 30 mg/kg p.o. one hour before ET, n = 5
Procedure: (§2) In a manner similar to that described in Test Example 2, Jcl: SD male rats (200 to 250 g) were applied with cannulation for measurement of blood pressure and for injecting PAF. The test animals were fasted overnight, and the experiments were conducted. The cannula on the side of femoral artery was connected with a pressure transducer and secured. The, endotoxin (ET) (50 mg/kg) was given through the cannula on the side of femoral vein at a rate of 1 ml/kg. While measuring blood pressure continuously, time until death was measured. Test drugs (30 mg/kg) were suspended in gum arabic and water, which were orally administered (5 ml/kg) to test animals one hour before the injection of ET. The animals in the control group were administered with a suspension of gum arabic in water.

[3] = system: PAF-Induced Platelet Aggregation; test: Inhibitory Action on PAF-Induced Platelet Aggregation; format: cell-based, New Zealand white male rabbits; settings: Oryctolagus cuniculus, Drug Concentration: 3 × 10^-5 M, rabbit PRP
Procedure: Blood was collected from the hearts of conscious New Zealand white male rabbits weighing 2 to 3 kg using citric acid as an anticoagulant (one volume part of 3.15% citric acid per 9 volume parts of the whole blood). The blood was subjected to a centrifuge at 800 rpm for ten minutes to obtain platelet rich plasma (PRP). The remaining blood after collecting the PRP was subjected to a centrifuge at 3000 rpm for ten minutes to obtain platelet poor plasma (PPP). PRP was diluted with PPP, and the number of platelets was adjusted to 500,000/μl. Platelet aggregation was examined by means of turbidimetry [Born, Nature, 194, 927-929 (1962)] with 8 channel aggregometer (NBS HEMA TRACER 6 Nikoh, Bioscience, Japan). More concretely, PRP (250 μl) was kept warm (37° C.) for three minutes in a silicon-processed cuvette, to which was added a test sample (25 μl) dissolved in a physiological saline or in 10mM dimethylsulfoxide followed by dilution with a physiological saline. Two minutes later, PAF (25 μl, 3×10^-9 -1×10^-8 M), dissolved in a physiological saline, was added and then the maximum aggregation rate was determined. As the control, physiological saline without test sample was added to the cuvette, and the inhibitory rate thereon was determined.

PAF-Induced Hypotension = test: Inhibitory Action on PAF-Induced Hypotension; format: in vivo, SD (Jcl) male rats; settings: po, 30 mg/kg p.o., rat
Procedure: SD (Jcl) male rats of 6 to 8 week old were subjected to the experiment. After fasting overnight, the rats were cannulated into the femoral artery and vein under anesthesia with pentobarbital. A transducer (MPU-0.5-290O-III, TOYO BALDWIN, Japan) was connected with the artery cannula, and blood pressure was continuously measured. […] The rate of inhibition of lowering of blood pressure after administration of the test samples against the control was evaluated.

diabetic nephropathy = test: Action Against Diabetic Nephropathy; format: in vivo, Female KKAy mice; settings: for albumin (%) excreted in urine / Amount of albumin excreted in urine / Amount of glucose in plasma / Amount of triglyceride in plasma / Total amount of protein in urine: 3 weeks, N 8; for albumin (%) excreted in urine: in parentheses; for Amount of albumin excreted in urine / Amount of glucose in plasma / Amount of triglyceride in plasma / Total amount of protein in urine: means ±SE
Procedure: Female KKAy mice of 10 weeks old were employed. Test animals were administered with the compound of Example 62 for three weeks at doses of 8 and 26 mg/kg/day in admixture with feedstuff. Then, urine was collected from these animals for 24 hours. Urine desalted (filtered urine) by means of a PD-10 column (Pharmacia) was employed to determine the total protein concentration in the urine by using a protein-assay kit (Bio-Rad). The amount ot albumin in the urine was calculated from the relative concentration of albumin to the total protein determined by means of electrophoresis.
Glucose and triglyceride in the plasma were determined by an enzyme method using the Ankol Chemistry System (Baker instruments).

cerebral infarction [4] = test: Action Against Experimental Cerebral Infarction in Mongolian Gerbils (stroke index); format: in vivo; settings: 30 mg/kg, p.o., N = 5
Procedure: as §1

ET-induced hypotension = test: Anti-Endotoxin Shock Activity in Rats: ET-induced hypotension; format: in vivo, Jcl: SD male rats; settings: for Blood Pressure: 30 mg/kg p.o. one hour before ET, n = 5
Procedure: as §2

[5] = 8 and 26 mg/kg/day, three weeks

SMILES: COc1cc2c(cc1OC)CCCC(C(=O)N1CCN(C(=O)c3cc(OC)c(OC)c(OC)c3)CC1)=C2 [Example 62, 1-(2,3-dimethoxy-6,7-dihydro-5H-benzocyclohepten-8-ylcarbonyl)-4-(3,4,5-trimethoxybenzoyl)piperazine]
- Area of wheals stained with the dye ([1]; 3.1 mg/kg): 52.8 ± 2.7 mm^2
- Preventive effect of reversed passive Arthus reaction ([1]; 3.1 mg/kg): 5%
- Area of wheals stained with the dye ([1]; 12.5 mg/kg): 38.4 ± 6.1 mm^2
- Preventive effect of reversed passive Arthus reaction ([1]; 12.5 mg/kg): 31%
- Preventive effect of reversed passive Arthus reaction ([1]; 50 mg/kg): 70%
- Area of wheals stained with the dye ([1]; 50 mg/kg, **P < 0.01): 16.8 ± 5.1 mm^2
- body weight between the control group and the test group (Wistar-strain rats): No difference in body weight
- general behaviors (Wistar-strain rats): no change was observed in general behaviors
- internal organs under macroscopic observation (autopsy) (Wistar-strain rats): no abnormality in internal organs
- Angle of inclined plane where test animals tumble down the ramp (cerebral infarction [2]; 15 min after reperfusion): 34 ± 3 °
- Angle of inclined plane where test animals tumble down the ramp (cerebral infarction [2]; 30 min after reperfusion): 35 ± 3 °
- Angle of inclined plane where test animals tumble down the ramp (cerebral infarction [2]; 60 min after reperfusion, *P < 0.05): 35 ± 2 °
- Angle of inclined plane where test animals tumble down the ramp (cerebral infarction [2]; 120 min after reperfusion, *P < 0.05): 36 ± 2 °
- Angle of inclined plane where test animals tumble down the ramp (cerebral infarction [2]; 180 min after reperfusion): 38 ± 2 °
- Angle of inclined plane where test animals tumble down the ramp (cerebral infarction [2]; ligation time 0 min): 47 ± 1 °
- Angle of inclined plane where test animals tumble down the ramp (cerebral infarction [2]; ligation time 15 min): 20 ± 0 °
- Number of survivals (ET-induced death; 0 hr): 5
- Number of survivals (ET-induced death; 1 hr): 5
- Number of survivals (ET-induced death; 2 hr): 5
- Number of survivals (ET-induced death; 3 hr): 5
- Number of survivals (ET-induced death; 4 hr): 4
- Number of survivals (ET-induced death; 5 hr): 2
- Number of survivals (ET-induced death; 6 hr): 1
- Number of survivals (ET-induced death; 7 hr): 1
- Number of survivals (ET-induced death; 8 hr): 1
- survival time (ET-induced death; 30 mg/kg p.o., control group 108±26 minutes, **): 320 ± 45 min
- inhibition at 30 µM [3]: 100%
- inhibition in vivo at 30 mg/kg (PAF-Induced Hypotension; after 1 hr): 100%
- inhibition in vivo at 30 mg/kg (PAF-Induced Hypotension; after 2 hrs): 100%
- inhibition in vivo at 30 mg/kg (PAF-Induced Hypotension; after 4 hrs): 100%
- albumin (%) excreted in urine (diabetic nephropathy; 8 mg/kg/day p.o.): 46%
- Amount of albumin excreted in urine (diabetic nephropathy; 8 mg/kg/day p.o.): 11.0 ± 2.0 mg/day
- Amount of glucose in plasma (diabetic nephropathy; 8 mg/kg/day p.o.): 326 ± 26 mg/dL
- Amount of triglyceride in plasma (diabetic nephropathy; 8 mg/kg/day p.o.): 499 ± 45 mg/dL
- Total amount of protein in urine (diabetic nephropathy; 8 mg/kg/day p.o.): 23.8 ± 2.9 mg/day
- suppression of excretion of albumin in urine (diabetic nephropathy; 26 mg/kg/day): significant
- albumin (%) excreted in urine (diabetic nephropathy; 26 mg/kg/day p.o.): 36%
- Amount of glucose in plasma (diabetic nephropathy; 26 mg/kg/day p.o.): 381 ± 33 mg/dL
- Amount of triglyceride in plasma (diabetic nephropathy; 26 mg/kg/day p.o.): 546 ± 43 mg/dL
- Total amount of protein in urine (diabetic nephropathy; 26 mg/kg/day p.o.): 22.0 ± 3.8 mg/day
- Amount of albumin excreted in urine (diabetic nephropathy; 26 mg/kg/day p.o., *p<0.05 vs control): 8.0 ± 0.7 mg/day
- excretion of albumin in urine (diabetic nephropathy; [5]): suppressed the excretion of albumin in urine dose-dependently
- plasma glucose (diabetic nephropathy; [5]): No change
- plasma triglyceride (diabetic nephropathy; [5]): No change
- total protein in urine (diabetic nephropathy; high dose): showed a tendency of being suppressed in a high dose
- Stroke index (cerebral infarction [4]; 15 min after reperfusion, **P < 0.01): 4.2 ± 0.6
- Stroke index (cerebral infarction [4]; 30 min after reperfusion, **P < 0.01): 3.4 ± 0.5
- Stroke index (cerebral infarction [4]; 60 min after reperfusion, **P < 0.01): 3.2 ± 0.5
- Stroke index (cerebral infarction [4]; 120 min after reperfusion, **P < 0.01): 2.0 ± 0
- Stroke index (cerebral infarction [4]; 180 min after reperfusion, **P < 0.01): 0.8 ± 0.5
- Stroke index (cerebral infarction [4]; ligation time 0 min): 0
- Stroke index (cerebral infarction [4]; ligation time 15 min, *P < 0.05): 14.0 ± 1.0
- lowering of blood pressure due to ET (ET-induced hypotension; 30 mg/kg p.o.): suppressed significantly
- Blood Pressure (ET-induced hypotension; 0 min): 92 ± 2 mmHg
- Blood Pressure (ET-induced hypotension; 3 min): 82 ± 6 mmHg
- Blood Pressure (ET-induced hypotension; 5 min, **P < 0.01): 90 ± 4 mmHg
- Blood Pressure (ET-induced hypotension; 10 min, *P < 0.05): 90 ± 4 mmHg
- Blood Pressure (ET-induced hypotension; 15 min): 92 ± 3 mmHg
- Blood Pressure (ET-induced hypotension; 20 min): 95 ± 3 mmHg
